This experiment deals with TNFα trimer (Homo sapiens, UniProt P01375). Put plainly: TNFα FP Competitive Binding Assay. The note with it: FP binding assay; 20 nM TNFα trimer, 1 nM OregonGreen488 probe; read-out: TNF IC50. Put shortly: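 Fluorescence polarization competition: 20 nM TNFα trimer with 1 nM fluorescein-labelled probe in HEPES/NaCl/EDTA/Triton X-100 buffer, compound in 12-point 1:3 dilutions (final top 338 μM or 100 μM). Incubated 18-24 h, background-subtracted mP read, variable-slope dose-response fitting.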

This is an account of results in patent publication US10160748B2 (AbbVie Inc., priority 2015, dated 2018).

Sequence of TNFα trimer (P01375 77-233 limits assumed): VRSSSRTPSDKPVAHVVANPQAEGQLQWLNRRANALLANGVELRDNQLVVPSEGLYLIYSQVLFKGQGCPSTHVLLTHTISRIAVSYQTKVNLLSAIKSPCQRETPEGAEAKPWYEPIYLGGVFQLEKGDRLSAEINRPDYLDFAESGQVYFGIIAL

Consider `Cc1ccc(OC(F)F)c(Cn2c3cc(-c4cnc(N5CCN(C(=O)CO)C[C@H]5C)nc4)ccc3c(=O)n2C)c1` [Example 22.4], for which the IC50 (commonly the midpoint of a concentration-inhibition curve) is less than 1000 nM. As for `Cc1ccc(OC(F)F)c(Cn2c3cc(-c4cnc(C(C)(C)O)nc4C)ccc3c(=O)n2C)c1` [Example 22.5], the IC50 was less than 1000 nM. With `CC(=O)N1CCN(c2ncc(-c3ccc4c(=O)n(C)n(Cc5cc(C)ccc5OC(F)F)c4c3)cn2)CC1` [Example 22.6], the IC50 was less than 1000 nM. Regarding `Cc1ccc(OC(F)F)c(Cn2c3cc(-c4cnc(N5CCC[C@H]5CO)nc4)ccc3c(=O)n2C)c1` [Example 22.7], the IC50 lay in the range of 1000 to 10000 nM. Turning to `Cc1ccc(OC(F)F)c(Cn2c3cc(-c4cnc(N5CCC[C@@H]5CO)nc4)ccc3c(=O)n2C)c1` [Example 22.8], the IC50 was in the range of 1000 to 10000 nM.

Turning to `Cc1ccc(OC(F)F)c(Cn2c3cc(-c4cnc(C(C)(C)CO)nc4)ccc3c(=O)n2C)c1` [Example 22.9], the IC50 lay in the range of 1000 to 10000 nM. For the compound `CC(=O)N1CCN(c2ncc(-c3ccc4c(=O)n(C)n(Cc5cc(C)ccc5OC(F)F)c4c3)cn2)C[C@H]1CO` [Example 22.10], the IC50 is less than 1000 nM. Consider `CC(=O)N1CCN(c2ncc(-c3ccc4c(=O)n(C)n(Cc5cc(C)ccc5OC(F)F)c4c3)cn2)C[C@@H]1CO` [Example 22.11], for which the IC50 is less than 1000 nM. The result for `Cc1ccc(OC(F)F)c(Cn2c3cc(-c4cnc(N5CCN6C(=O)OC[C@H]6C5)nc4)ccc3c(=O)n2C)c1` [Example 22.12] reads less than 1000 nM; that for `Cc1ccc(OC(F)F)c(Cn2c3cc(-c4ccnc(OC5CCOCC5)c4)ccc3c(=O)n2C)c1` [Example 22.13], less than 1000 nM; that for `CC(=O)N1CCN(c2ncc(-c3ccc4c(=O)n(C)n(Cc5cc(C)ccc5OC(F)F)c4c3)c(C)n2)[C@H](C)C1` [Example 22.14], less than 1000 nM. `Cc1ccc(OC(F)F)c(Cn2c3cc(-c4cnc(N5CCN(C(=O)CO)C[C@@H]5C)nc4)ccc3c(=O)n2C)c1` [Example 22.15]: the IC50 was less than 1000 nM. Under `COC(=O)N1CCN(c2ncc(-c3ccc4c(=O)n(C)n(Cc5cc(C)ccc5OC(F)F)c4c3)cn2)C[C@H]1C` [Example 23, (R)-Methyl 4-(5-(1-(2-(difluoromethoxy)-5-methylbenzyl)-2-methyl-3-oxo-2,3-dihydro-1H-indazol-6-yl)pyrimidin-2-yl)-2-methylpiperazine-1-carboxylate] stands less than 1000 nM; under `C[C@@H]1CN(c2ncc(-c3ccc4c(=O)n(C)n(Cc5ccccc5Cl)c4n3)cn2)CCN1C(=O)CO` [Example 23.1], less than 1000 nM. Take `C[C@@H]1CN(c2ncc(-c3cc4c(cc3C#N)c(=O)n(C)n4Cc3ccccc3OC(F)F)cn2)CCN1C(=O)CO` [Example 23.2]: the IC50 is 1000 to 10000 nM. Under `C[C@@H]1CN(c2ncc(-c3ccc4c(=O)n(C)n(Cc5ccccc5OC(F)F)c4c3C#N)cn2)CCN1C(=O)CO` [Example 23.3] stands less than 1000 nM; under `Cc1ccc(OC(F)F)c(Cn2c3cc(-c4cnc(N5CCN(S(C)(=O)=O)[C@H](C)C5)nc4)ccc3c(=O)n2C)c1` [Example 24, (R)-1-(2-(Difluoromethoxy)-5-methylbenzyl)-2-methyl-6-(2-(3-methyl-4-(methylsulfonyl)piperazin-1-yl)pyrimidin-5-yl)-1H-indazol-3(2H)-one], less than 1000 nM.

As for `C[C@@H]1CN(c2ncc(-c3ccc4c(=O)n(C)n(Cc5cc(CC#N)ccc5OC(F)F)c4c3)cn2)CCN1C(=O)CO` [Example 24.1], the half-maximal inhibitory concentration (IC50) is less than 1000 nM. Under `Cc1cccc(C(C)n2c3cc(-c4cnc(N5CCN(C(=O)CO)[C@H](C)C5)nc4)ccc3c(=O)n2C)n1` (stereo partly shown) [Example 24.2] stands 1000 to 10000 nM; under `CCC(c1cccc(C)c1)n1c2cc(-c3cnc(N4CCN(C(=O)CO)[C@H](C)C4)nc3)ccc2c(=O)n1C` (stereo partly shown) [Example 24.3], less than 1000 nM. Under `C[C@@H]1CN(c2ncc(-c3ccc4c(=O)n(C(F)F)n(Cc5ccccc5OC(F)F)c4c3)cn2)CCN1C(=O)CO` [Example 24.4] stands less than 1000 nM; under `C[C@@H]1CN(c2ncc(-c3ccc4c(=O)n(C)n(Cc5ccccc5Cl)c4c3F)cn2)CCN1C(=O)CO` [Example 24.5], less than 1000 nM; under `C[C@@H]1CN(c2ncc(-c3ccc4c(=O)n(C)n(Cc5ccccc5OC(F)F)c4c3F)cn2)CCN1C(=O)CO` [Example 24.6], less than 1000 nM.

On to `CC(c1cc(F)ccc1F)n1c2cc(-c3cnc(N4CCN(C(=O)CO)[C@H](C)C4)nc3)ccc2c(=O)n1C` (stereo partly shown) [Example 24.7], for which the IC50 is less than 1000 nM. The result for `C[C@@H]1CN(c2ncc(-c3ccc4c(=O)n(C)n(Cc5ccccc5Cl)c4c3)cn2)CCN1C(=O)CO` [Example 24.8] reads less than 1000 nM; that for `COc1c(-c2cnc(N3CCN(C(=O)CO)[C@H](C)C3)nc2)ccc2c(=O)n(C)n(Cc3ccccc3Cl)c12` [Example 24.9], less than 1000 nM; that for `Cc1ccnc(C(C)n2c3cc(-c4cnc(N5CCN(C(=O)CO)[C@H](C)C5)nc4)ccc3c(=O)n2C)c1` (stereo partly shown) [Example 24.10], 1000 to 10000 nM.

On to `C[C@@H]1CN(c2ncc(-c3nc4c(cc3F)c(=O)n(C)n4Cc3ccccc3OC(F)F)cn2)CCN1C(=O)CO` [Example 24.11], for which the IC50 is less than 1000 nM.

As for `Cc1c(-c2cnc(N3CCN(C(=O)CO)[C@H](C)C3)nc2)ccc2c(=O)n(C)n(Cc3ccccc3OC(F)F)c12` [Example 24.12], the IC50 is less than 1000 nM. The result for `Cc1c(-c2cnc(N3CCN(C(=O)CO)[C@H](C)C3)nc2)ccc2c(=O)n(C)n(Cc3ccccc3Cl)c12` [Example 24.13] reads less than 1000 nM; that for `Cc1ccc(OC(F)F)c(Cn2c3cc(-c4cnc(N5CCN(C(=O)CC#N)[C@@H](C)C5)nc4)ccc3c(=O)n2C)c1` [Example 25.1], less than 1000 nM. In the case of `Cc1ccc(OC(F)F)c(Cn2c3c(F)c(-c4cnc(C(C)(C)O)nc4)ccc3c(=O)n2C)c1` [Example 26.1], the IC50 fell in the range of 1000 to 10000 nM. For `Cc1ccc(OC(F)F)c(Cn2c3cc(-c4cnc(C(C)(C)O)nc4)ccc3c(=O)n2C(F)F)c1` [Example 26.2], the IC50 was in the range of 1000 to 10000 nM. The result for `COC(=O)NCc1ccc(OC(F)F)c(Cn2c3cc(-c4cnc(C(C)(C)O)nc4)ccc3c(=O)n2C)c1` [Example 26.3] reads 1000 to 10000 nM; that for `Cn1c(=O)c2cc(F)c(-c3cnc(C(C)(C)O)nc3)cc2n1Cc1cc(Cn2cncn2)ccc1OC(F)F` [Example 26.4], less than 1000 nM; that for `Cn1c(=O)c2cc(F)c(-c3cnc(C(C)(C)O)nc3)cc2n1Cc1cc(Cn2cnnc2)ccc1OC(F)F` [Example 26.5], 1000 to 10000 nM.

As for `CC(=O)N1CC(Cc2ccc(OC(F)F)c(Cn3c4cc(-c5cnc(C(C)(C)O)nc5)c(F)cc4c(=O)n3C)c2)C1` [Example 26.6], the IC50 was in the range of 1000 to 10000 nM.

In the case of `Cc1ccc(OC(F)F)c(Cn2c3nc(-c4cnc(C(C)(C)O)nc4)c(F)cc3c(=O)n2C)c1` [Example 26.7], the IC50 was 1000 to 10000 nM.

In the case of `Cn1c(=O)c2ccc(-c3cnc(C(C)(C)O)nc3)cc2n1Cc1cc(CC#N)ccc1OC(F)F` [Example 26.8], the half-inhibitory concentration (IC50) lay in the range of 1000 to 10000 nM. Take `CC(=O)NCc1ccc(OC(F)F)c(Cn2c3cc(-c4cnc(N5CCN(C(C)=O)[C@H](C)C5)nc4)ccc3c(=O)n2C)c1` [Example 27.1]: the IC50 fell in the range of 1000 to 10000 nM. For `COC(=O)NCc1ccc(OC(F)F)c(Cn2c3cc(-c4cnc(N5CCN(C(C)=O)[C@H](C)C5)nc4)ccc3c(=O)n2C)c1` [Example 27.2], the IC50 was less than 1000 nM. Under `CC(=O)N1CCN(c2ncc(-c3ccc4c(=O)n(C)n(Cc5cc(CC#N)ccc5OC(F)F)c4c3)cn2)C[C@H]1C` [Example 27.3] stands less than 1000 nM; under `CC(=O)N1CCN(c2ncc(-c3ccc4c(=O)n(C)n(Cc5cc(CC(C)C#N)ccc5OC(F)F)c4c3)cn2)C[C@H]1C` (stereo partly shown) [Example 27.4], 1000 to 10000 nM.

With `CC(=O)N1CCN(c2ncc(-c3ccc4c(=O)n(C)n(Cc5c[nH]cc5C(F)(F)F)c4c3)cn2)C[C@H]1C` [Example 27.5], the IC50 was less than 1000 nM. The result for `CC(=O)N1CCN(c2ncc(-c3ccc4c(=O)n(Cc5ccncc5)n(Cc5ccccc5OC(F)F)c4c3)cn2)C[C@H]1C` [Example 27.6] reads 1000 to 10000 nM.

As to `CC(=O)N1CCN(c2ncc(-c3ccc4c(=O)n(Cc5ccncc5)n(Cc5ccccc5Cl)c4c3)cn2)C[C@H]1C` [Example 27.7], the IC50 lay in the range of 1000 to 10000 nM. Turning to `CC(c1c(F)cccc1F)n1c2cc(-c3cnc(N4CCN(C(=O)CO)[C@H](C)C4)nc3)ccc2c(=O)n1C` (stereo partly drawn) [Example 28.1, 1-(1-(2,6-Difluorophenyl)ethyl)-6-(2-((R)-4-(2-hydroxyacetyl)-3-methylpiperazin-1-yl)pyrimidin-5-yl)-2-methyl-1H-indazol-3(2H)-one], the half-maximal inhibitory concentration (IC50) is less than 1000 nM. `CC(c1ccccc1)n1c2cc(-c3cnc(N4CCN(C(=O)CO)[C@H](C)C4)nc3)ccc2c(=O)n1C` (stereo partly shown) [Example 28.2]: the IC50 was less than 1000 nM. Under `CC(c1ccccc1F)n1c2cc(-c3cnc(N4CCN(C(=O)CO)[C@H](C)C4)nc3)ccc2c(=O)n1C` (stereo partly shown) [Example 28.3] stands less than 1000 nM; under `CC(c1ccccc1Cl)n1c2cc(-c3cnc(N4CCN(C(=O)CO)[C@H](C)C4)nc3)ccc2c(=O)n1C` (stereo partly shown) [Example 28.4], 1000 to 10000 nM; under `Cn1c(=O)c2ccc(-c3cnc(N4CCN(C=O)CC4)nc3)cc2n1Cc1cc(CO)ccc1OC(F)F` [Example 29, 4-(5-(1-(2-(Difluoromethoxy)-5-(hydroxymethyl)benzyl)-2-methyl-3-oxo-2,3-dihydro-1H-indazol-6-yl)pyrimidin-2-yl)piperazine-1-carbaldehyde], less than 1000 nM. Under `Cc1cnc(C(F)(F)F)c(Cn2c3cc(-c4cnc(N5CCN6C(=O)NC[C@H]6C5)nc4)ccc3c(=O)n2C)c1` [Example 29.1] stands 1000 to 10000 nM; under `Cn1c(=O)c2ccc(-c3cnc(N4CCN5C(=O)NC[C@H]5C4)nc3)cc2n1Cc1cccnc1C(F)(F)F` [Example 29.2], 1000 to 10000 nM; under `Cc1ccc(C(F)(F)F)c(Cn2c3cc(-c4cnc(N5CCN6C(=O)NC[C@H]6C5)nc4)ccc3c(=O)n2C)c1` [Example 29.3], less than 1000 nM. Under `Cn1c(=O)c2ccc(-c3cnc(N4CCN5C(=O)NC[C@H]5C4)nc3)cc2n1Cc1c(Cl)ccc2c1COC2` [Example 29.4] stands less than 1000 nM.
